Test results: paper PMC9709406 (Frontiers in Pharmacology, 2022)
“And” between values parts separate entries of the source, which are not always exact repeats. Equal entries are not always repeated.

Columns and labels:
SHEE cells = assay: MTT assay, normal esophageal epithelial cell line SHEE; assay type: cell-based; settings: Homo sapiens, 48 h, n = 5
From the text: (§1) The human cancer cells (H1650, H1975, KYSE70, KYSE410 and KYSE450) were purchased from the Type Culture Collection of the Chinese Academy of Sciences (Shanghai, China). The human immortalized normal esophageal epithelial cell line SHEE was donated by Dr. Enmin Li from the Laboratory of Tumor Pathology (Shantou University Medical College, Shantou, Guangdong, China). Drug-resistant cells (H1650TR, H1975OR, KYSE70TR, KYSE410TR and KYSE450TR) were induced by China-US (Henan) Hormel Cancer Institute. The cellswere cultured in RPMI-1640 complete growth medium containing 100 U/mL penicillin-streptomycin and 10% FBS. Based on the above medium formula, 100 nm/L paclitaxel was added in taxol-resistant cells, 100 nm/L gefitinib was added in gefitinib-resistant cells. The cells were incubated at 37 °C in an atmosphere containing 5% of CO2. The compounds were dissolved in DMSO to make a 50 mM stock solution and were diluted to the concentration of working solutions with complete growth medium before administration.
(§2) Cells were seeded in 96-well plates with 2,200–2,500 cells/well in100 μL. One day after seeding, test compounds with the concentration between 0 and 50 μM were added with 0.1% DMSO as control. Five multiple wells for each concentration. After 48 h, MTT was added and incubated in the plate for 1–4 h in the incubator. The absorbance at 490 nm was measured using a microplate reader (Thermo).

H1975 cells = assay: MTT assay for cell proliferation and cytotoxicity, H1975; assay type: cell-based, human; settings: Homo sapiens, NCI-H1975, 48 h, MTT, 48 h, H1975, n = 5; read-out: IC50 48 h H1975
From the text: as §1
as §2, with “After 48 h, MTT was added and incubated in the plate for 1–4 h in the incubator.” left out

H1650 cells = assay: MTT assay for cell proliferation and cytotoxicity, H1650; assay type: cell-based; settings: Homo sapiens, NCI-H1650, 48 h, H1650, n = 5
From the text: as §1, §2

KYSE450 cells = assay: MTT assay, KYSE450; assay type: cell-based, human; settings: for IC50: Homo sapiens, KYSE-450, MTT, 48 h, KYSE450, n = 5, read-out: IC50 48 h KYSE450; for absorbance 490 nm, single well / mean absorbance 490 nm (row G) / mean absorbance 490 nm minus background (row H): KYSE450
From the text: as §1, §2

KYSE70 cells = assay: MTT assay, KYSE70; assay type: cell-based, human; settings: for IC50: Homo sapiens, KYSE-70, MTT, 48 h, KYSE70, n = 5
From the text: as §1, §2

KYSE410 cells = assay: MTT assay, KYSE410; assay type: cell-based, human; settings: for IC50: Homo sapiens, KYSE-410, MTT, 48 h, KYSE410, n = 5, read-out: IC50 48 h KYSE410
From the text: as §1, §2

[1] = concentration 12.5 (unit not given)
[2] = concentration 25 (unit not given)
[3] = concentration 50 (unit not given)
[4] = concentration 100 (unit not given)

In the case of `Fc1cccc(-n2cc(-c3cccc(Nc4ncnc5cc6c(cc45)OCCOCCOCCO6)c3)nn2)c1` [compound 3a], the IC50 (SHEE cells) is reported as 12.1 ± 0.97 µM, the melting point is reported as 123 to 126 °C and the IC50 (H1975 cells) is reported as 9.87 ± 0.88 µM. The IC50 (H1650 cells) was 15.6 ± 1.02 µM, the IC50 (KYSE450 cells) was 7.24 ± 0.65 µM and the IC50 (KYSE70 cells) was 10.2 ± 0.88 µM. It also gave an IC50 (KYSE410 cells) of 48.6 ± 2.16 µM.
In the case of `Fc1ccc(-n2cc(-c3cccc(Nc4ncnc5cc6c(cc45)OCCOCCOCCO6)c3)nn2)cc1` [compound 3c], the IC50 (SHEE cells) is reported as 6.23 ± 0.37 µM, the melting point is reported as 129 to 132 °C and the IC50 (H1975 cells) is reported as > 50 µM. The IC50 (H1650 cells) was 9.4 ± 0.73 µM, the IC50 (KYSE450 cells) was 13.8 ± 1.13 µM and the IC50 (KYSE70 cells) was 5.84 ± 0.36 µM. The IC50 (KYSE410 cells) was > 50 µM.
With `c1ccc(-n2cc(-c3cccc(Nc4ncnc5cc6c(cc45)OCCOCCOCCO6)c3)nn2)cc1` [compound 3f] the IC50 (SHEE cells) was > 50 µM, the melting point was 148 to 150 °C and the IC50 (H1975 cells) was > 50 µM. The IC50 (H1650 cells) was 12.3 ± 0.91 µM, the IC50 (KYSE450 cells) was 45 ± 2.53 µM and the IC50 (KYSE70 cells) was 25 ± 1.53 µM. The IC50 (KYSE410 cells) was > 50 µM.
In the case of `Clc1cccc(-n2cc(-c3cccc(Nc4ncnc5cc6c(cc45)OCCOCCOCCO6)c3)nn2)c1` [compound 3g], the IC50 (SHEE cells) is reported as 8.01 ± 0.77 µM, the IC50 (H1975 cells) is reported as 4.75 ± 0.33 µM and the IC50 (H1650 cells) is reported as 8.72 ± 0.73 µM. It also gave an IC50 (KYSE450 cells) of 4.51 ± 0.29 µM, an IC50 (KYSE70 cells) of 6.13 ± 0.31 µM and an IC50 (KYSE410 cells) of 10.9 ± 0.99 µM.
Compound `Ic1ccccc1-n1cc(-c2cccc(Nc3ncnc4cc5c(cc34)OCCOCCOCCO5)c2)nn1` [compound 3h] has an IC50 (SHEE cells) of 22.6 ± 1.19 µM, a melting point of 137 to 140 °C and an IC50 (H1975 cells) of 12.1 ± 0.92 µM. For the same compound, the IC50 (H1650 cells) was 30.6 ± 1.99 µM, the IC50 (KYSE450 cells) was 16.7 ± 1.31 µM and the IC50 (KYSE70 cells) was 18.4 ± 1.05 µM. For the same compound, the IC50 (KYSE410 cells) was > 50 µM.
For `COc1cccc(-n2cc(-c3cccc(Nc4ncnc5cc6c(cc45)OCCOCCOCCO6)c3)nn2)c1` [compound 3i], the IC50 (SHEE cells) was 28.1 ± 1.38 µM, the melting point was 122 to 125 °C and the IC50 (H1975 cells) was 19.7 ± 1.07 µM. The IC50 (H1650 cells) was 6.25 ± 0.54 µM, the IC50 (KYSE450 cells) was 10 ± 0.93 µM and the “absorbance 490 nm, single well” value (KYSE450 cells; [1]) was 0.3641 and 0.3196 and 0.3651. The “mean absorbance 490 nm (row G)” value (KYSE450 cells; [1]) was 0.3496, the “mean absorbance 490 nm minus background (row H)” value (KYSE450 cells; [1]) was 0.2948 and the “absorbance 490 nm, single well” value (KYSE450 cells; [2]) was 0.1604 and 0.1809 and 0.1731. For the same compound, the “mean absorbance 490 nm (row G)” value (KYSE450 cells; [2]) was 0.1715, the “mean absorbance 490 nm minus background (row H)” value (KYSE450 cells; [2]) was 0.1167 and the “absorbance 490 nm, single well” value (KYSE450 cells; [3]) was 0.1052 and 0.1046 and 0.0923 and 0.1026. For the same compound, the “mean absorbance 490 nm (row G)” value (KYSE450 cells; [3]) was 0.1012, the “mean absorbance 490 nm minus background (row H)” value (KYSE450 cells; [3]) was 0.04637 and the “absorbance 490 nm, single well” value (KYSE450 cells; [4]) was 0.0702 and 0.0745 and 0.0767 and 0.0714. The “mean absorbance 490 nm (row G)” value (KYSE450 cells; [4]) was 0.0732, the “mean absorbance 490 nm minus background (row H)” value (KYSE450 cells; [4]) was 0.0184 and the IC50 (KYSE70 cells) was 7.02 ± 0.64 µM. For the same compound, the “blank-corrected absorbance 490 nm relative to control (fraction)” value (KYSE70 cells; KYSE70, concentration 12.5) was 0.1099, the “inhibition (1 minus fraction of control)” value (KYSE70 cells; KYSE70, concentration 12.5) was 0.8901 and the “blank-corrected absorbance 490 nm relative to control (fraction)” value (KYSE70 cells; KYSE70, concentration 25) was 0.08489. For the same compound, the “inhibition (1 minus fraction of control)” value (KYSE70 cells; KYSE70, concentration 25) was 0.9151, the “blank-corrected absorbance 490 nm relative to control (fraction)” value (KYSE70 cells; KYSE70, concentration 50) was 0.007475 and the “inhibition (1 minus fraction of control)” value (KYSE70 cells; KYSE70, concentration 50) was 0.9925. For the same compound, the “blank-corrected absorbance 490 nm relative to control (fraction)” value (KYSE70 cells; KYSE70, concentration 100) was -0.01388, the “inhibition (1 minus fraction of control)” value (KYSE70 cells; KYSE70, concentration 100) was 1.014 and the IC50 (KYSE410 cells) was > 50 µM. The “blank-corrected absorbance 490 nm relative to control (fraction)” value (KYSE410 cells; KYSE410, concentration 12.5) was 0.4787, the “blank-corrected absorbance 490 nm relative to control (fraction)” value (KYSE410 cells; KYSE410, concentration 25) was 0.6596 and the “blank-corrected absorbance 490 nm relative to control (fraction)” value (KYSE410 cells; KYSE410, concentration 50) was 1.468. For the same compound, the “blank-corrected absorbance 490 nm relative to control (fraction)” value (KYSE410 cells; KYSE410, concentration 100) was 0.817.
